pEC50, pIC50, pKi: −log10 of the molar value.
Assays:
HiBiT-5-HT2C = HiBiT-5-HT2C (Homo sapiens, UniProt P28335); test: cell-based
5-HT2A = 5-HT2A (Homo sapiens, UniProt P28223); test: Gq-mediated calcium flux assay, Flp-In 293 T-Rex inducible cells (agonist and antagonist mode); type: cell-based; set-up: expressed in transfected cells
human Nav1.1 and Navβ1 [1] = target: T1, human Nav1.1 and Navβ1 (Homo sapiens, UniProt P35498); test: Manual whole-cell patch clamp sodium current recording, HEK cells expressing hNav1.1 and Navβ1; type: cell-based; conditions: for reduction in Nav1.1 peak INa: after 3.9 minutes of perfusion
Method: (§1) Cell lines: Human Embryonic Kidney (HEK) 293 cells stably expressing human VGSC a subunit Nav1.1 (GenBank accession number NP_008851.3) were a gift from Dr. Massimo Mantegazza. Human VGSC β1 subunit GenBank accession number NP_001028.1) cDNA was transfected into this line to generate a second, stable line. Cells were cultured in Dulbecco's Modified Eagle Medium containing (4.5 g/L D-glucose, L-glutamine, 110 mg/L sodium pyruvate, 200 μg/mL G418, 100 U/mL penicillin/streptomycin). All cells were maintained in an incubator at 37° C. with 5% CO2.
Manual Sodium Current Recording: Sodium current (INa) was measured at room temperature using the manual whole-cell patch clamp technique with previously described electrophysiological methods (Chen et al., J Biol Chem., 2012; 287 (46): 39061-39069). Cells were plated on 12 mm diameter clear glass poly-D-lysine coated coverslips (Neuvitro) and used for electrophysiological recordings within 48 hours after plating. Cells were identified with an AIR upright confocal microscope (Nikon). Micropipettes were obtained from 1.5 mm outer diameter capillary glass tubing (Harvard Apparatus) using a P-97 horizontal puller (Sutter Instrument Co.). Micropipettes were then polished using a MF-830 micro forge (Narishige) to obtain a resistance between 2.0 to 5.0 M (2. The intracellular solution contained the following (in mM): 1 NaCl, 125 N-methyl-D-glucamine, 2 MgCl2, 10 EGTA, 40 HEPES, 5 phosphocreatine-tris, 2 Mg-ATP, 0.2 Na2-GTP, 0.1 leupeptin, 270-275 mOsm, pH 7.2 with H2SO4. Extracellular solution contained the following (in mM): 120 NaCl, 1 BaCl2, 2 MgCl2, 0.2 CdCl2, 1 CaCl2), 20 sucrose, 10 glucose, 10 HEPES, 10 tetraethylammonium chloride, 300-305 mOsm, pH 7.35 with NaOH. Signals were amplified using a Multiclamp 700B amplifier (Molecular Devices). Data were acquired with a Digidata 1440A interface (Molecular Devices) and analyzed using pClamp10 offline. Pipette and whole-cell capacitance were fully compensated, and series resistance was predicted and compensated at 50%. Signals were low pass-filtered at 10 kHz, and data were sampled at 20 kHz. Residual linear capacity and leak currents were eliminated using online P/4 subtraction. Gravity-powered perfusion of XOB was used in all manual patch clamp experiments with a flow rate of 2-3 mL/min. All manual whole-cell INa recorded under XOB conditions was conducted after 3.9 minutes of perfusion unless indicated otherwise.

human Nav1.1 = human Nav1.1 (Homo sapiens, UniProt P35498); test: Manual whole-cell patch clamp sodium current recording, HEK cells stably expressing human Nav1.1; type: cell-based; conditions: 10 μM
Method: as §1
Manual Sodium Current Recording: Sodium current (INa) was measured at room temperature using the manual whole-cell patch clamp technique with previously described electrophysiological methods (Chen et al., J Biol Chem., 2012; 287 (46): 39061-39069). Cells were plated on 12 mm diameter clear glass poly-D-lysine coated coverslips (Neuvitro) and used for electrophysiological recordings within 48 hours after plating. Cells were identified with an AIR upright confocal microscope (Nikon). […] Data were acquired with a Digidata 1440A interface (Molecular Devices) and analyzed using pClamp10 offline. […] All manual whole-cell INa recorded under XOB conditions was conducted after 3.9 minutes of perfusion unless indicated otherwise.

HiBiT-5-HT2A = target: T2, HiBiT-5-HT2A (Homo sapiens, UniProt P28223); test: NanoBRET kinetic measurement of ligand binding to HiBiT-5-HT2A (Motulsky-Mahan)
T2 construct: expressed in transfected cells; host or cells: HEK293 (transient)

[2] = Chance observation of local anesthetic effect upon contact with mucous membranes; type: in vivo
human 5-HT2C receptor = target: T3, human 5-HT2C receptor (Homo sapiens, UniProt P28335); test: Gq-mediated calcium flux assay, Flp-In 293 T-Rex inducible cells (agonist and antagonist mode); type: cell-based
T3 construct: expressed in transfected cells

5-HT2B = 5-HT2B (Homo sapiens, UniProt P41595); test: as above; type: cell-based; set-up: expressed in transfected cells
human Nav1.1 and Navβ1 [3] = target: T1, human Nav1.1 and Navβ1; test: cell-based; conditions: for Peak INa Density @ −20 mV: I-V curve
[4] = antagonist mode, concentrations up to 10 μM

5-HT2A, sequence (P28223 whole entry, the tested form may be a part): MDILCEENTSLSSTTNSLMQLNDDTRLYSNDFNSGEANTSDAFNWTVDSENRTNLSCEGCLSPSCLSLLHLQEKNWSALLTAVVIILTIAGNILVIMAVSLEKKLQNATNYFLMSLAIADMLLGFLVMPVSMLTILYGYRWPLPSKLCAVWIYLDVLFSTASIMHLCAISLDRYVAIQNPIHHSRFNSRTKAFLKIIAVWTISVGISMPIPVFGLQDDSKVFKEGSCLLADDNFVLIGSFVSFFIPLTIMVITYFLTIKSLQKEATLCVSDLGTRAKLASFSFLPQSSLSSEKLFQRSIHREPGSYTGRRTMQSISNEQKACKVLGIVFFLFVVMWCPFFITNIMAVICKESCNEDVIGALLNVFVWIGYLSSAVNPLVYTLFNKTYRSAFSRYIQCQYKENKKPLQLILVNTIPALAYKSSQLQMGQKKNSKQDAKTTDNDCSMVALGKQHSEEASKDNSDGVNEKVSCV
T2 sequence (P28223 whole entry): as the sequence (P28223 whole entry, the tested form may be a part) above
T3 sequence (P28335 33-458): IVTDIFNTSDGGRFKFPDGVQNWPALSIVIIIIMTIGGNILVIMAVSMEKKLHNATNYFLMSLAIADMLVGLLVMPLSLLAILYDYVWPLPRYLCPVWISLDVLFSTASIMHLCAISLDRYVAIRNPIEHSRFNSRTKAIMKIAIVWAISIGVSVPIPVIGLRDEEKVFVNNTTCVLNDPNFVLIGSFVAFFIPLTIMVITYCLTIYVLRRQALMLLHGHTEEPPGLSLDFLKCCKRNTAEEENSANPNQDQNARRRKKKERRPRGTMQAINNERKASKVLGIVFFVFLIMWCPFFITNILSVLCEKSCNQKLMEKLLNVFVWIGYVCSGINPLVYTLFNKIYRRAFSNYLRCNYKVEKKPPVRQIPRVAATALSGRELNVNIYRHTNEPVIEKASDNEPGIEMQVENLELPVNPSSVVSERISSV
5-HT2B, sequence (P41595 whole entry): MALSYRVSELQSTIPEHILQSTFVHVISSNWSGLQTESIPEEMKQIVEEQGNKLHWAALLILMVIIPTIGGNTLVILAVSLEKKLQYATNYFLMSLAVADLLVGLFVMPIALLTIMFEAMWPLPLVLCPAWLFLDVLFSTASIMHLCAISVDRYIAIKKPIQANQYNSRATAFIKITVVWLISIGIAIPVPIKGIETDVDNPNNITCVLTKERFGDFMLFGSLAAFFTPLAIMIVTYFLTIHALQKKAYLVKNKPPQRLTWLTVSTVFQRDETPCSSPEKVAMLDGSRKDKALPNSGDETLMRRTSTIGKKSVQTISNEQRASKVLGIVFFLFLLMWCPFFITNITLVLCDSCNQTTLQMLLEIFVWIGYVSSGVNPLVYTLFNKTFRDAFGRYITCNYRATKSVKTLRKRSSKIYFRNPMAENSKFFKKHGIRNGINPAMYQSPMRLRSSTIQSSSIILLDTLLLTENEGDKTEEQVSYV
HiBiT-5-HT2C, sequence (P28335 33-458): as the sequence (P28335 33-458) above

Compound: COc1cc(CCNCCCCCCOCCCCc2ccccc2)c(OC)cc1Br [XOB, N-(4-bromo-2,5-dimethoxyphenethyl)-6-(4-phenylbutoxy)hexan-1-amine]
- pKi (HiBiT-5-HT2C): < 5.00
- agonist activity at 5-HT2A (5-HT2A; agonist mode, up to 10 μM): little to no measurable agonist activity
- pIC50 (5-HT2A; antagonist mode, 3.2 nM 5-HT, read-out: IC50, antagonism at 5-HT2A): 5.89
- pEC50 (5-HT2A; antagonist mode, read-out: EC50, antagonizes 5-HT2A): 5.89
- reduction in Nav1.1 peak INa (human Nav1.1 and Navβ1 [1]; 1 μM): 35.3%
- % Initial Peak INa (human Nav1.1 and Navβ1 [1]; 1 μM, time 0 s, step −120 mV to 0 mV): 100%
- % Initial Peak INa (human Nav1.1 and Navβ1 [1]; 1 μM, time 31.2 s): 100.6%
- % Initial Peak INa (human Nav1.1 and Navβ1 [1]; 1 μM, time 62.4 s): 93.0%
- % Initial Peak INa (human Nav1.1 and Navβ1 [1]; 1 μM, time 93.6 s): 88.8%
- % Initial Peak INa (human Nav1.1 and Navβ1 [1]; 1 μM, time 124.8 s): 87.0%
- % Initial Peak INa (human Nav1.1 and Navβ1 [1]; 1 μM, time 150.8 s): 77.7%
- % Initial Peak INa (human Nav1.1 and Navβ1 [1]; 1 μM, time 182 s): 75.1%
- % Initial Peak INa (human Nav1.1 and Navβ1 [1]; 1 μM, time 213.2 s): 70.9%
- % Initial Peak INa (human Nav1.1 and Navβ1 [1]; 1 μM, time 234 s): 64.7%
- reduction in Nav1.1 peak INa (human Nav1.1 and Navβ1 [1]; 5 μM): 95.7%
- % Initial Peak INa (human Nav1.1 and Navβ1 [1]; 5 μM, time 0 s, step −120 mV to 0 mV): 100%
- % Initial Peak INa (human Nav1.1 and Navβ1 [1]; 5 μM, time 31.2 s): 95.4%
- % Initial Peak INa (human Nav1.1 and Navβ1 [1]; 5 μM, time 62.4 s): 40.0%
- % Initial Peak INa (human Nav1.1 and Navβ1 [1]; 5 μM, time 93.6 s): 23.7%
- % Initial Peak INa (human Nav1.1 and Navβ1 [1]; 5 μM, time 124.8 s): 11.2%
- % Initial Peak INa (human Nav1.1 and Navβ1 [1]; 5 μM, time 150.8 s): 9.3%
- % Initial Peak INa (human Nav1.1 and Navβ1 [1]; 5 μM, time 182 s): 5.4%
- % Initial Peak INa (human Nav1.1 and Navβ1 [1]; 5 μM, time 213.2 s): 6.4%
- % Initial Peak INa (human Nav1.1 and Navβ1 [1]; 5 μM, time 234 s): 4.3%
- reduction in Nav1.1 peak INa (human Nav1.1 and Navβ1 [1]; 10 μM): 98.6%
- % Initial Peak INa (human Nav1.1 and Navβ1 [1]; 10 μM, time 0 s, step −120 mV to 0 mV): 100%
- % Initial Peak INa (human Nav1.1 and Navβ1 [1]; 10 μM, time 31.2 s): 97.1%
- % Initial Peak INa (human Nav1.1 and Navβ1 [1]; 10 μM, time 62.4 s): 94.8%
- % Initial Peak INa (human Nav1.1 and Navβ1 [1]; 10 μM, time 93.6 s): 73.7%
- % Initial Peak INa (human Nav1.1 and Navβ1 [1]; 10 μM, time 124.8 s): 28.5%
- % Initial Peak INa (human Nav1.1 and Navβ1 [1]; 10 μM, time 150.8 s): 8.7%
- % Initial Peak INa (human Nav1.1 and Navβ1 [1]; 10 μM, time 182 s): 2.9%
- % Initial Peak INa (human Nav1.1 and Navβ1 [1]; 10 μM, time 213.2 s): 2.5%
- % Initial Peak INa (human Nav1.1 and Navβ1 [1]; 10 μM, time 234 s): 1.4%
- original baseline INa density at 0 mV recovered after washout (human Nav1.1; 10 minutes of washing out): 17.5±3.64%
- reduction of mean Nav1.1 peak INa density at 0 mV compared to baseline (human Nav1.1; acute perfusion, three cells): 94.1±1.31%
- association rate at 5-HT2A relative to serotonin (in words) (HiBiT-5-HT2A): two orders of magnitude slower
- association rate at 5-HT2A, fold slower than serotonin (HiBiT-5-HT2A): about 24 fold
- local anesthetic effect [2]: profound and long-lasting local anesthetic effect
- agonist activity at 5-HT2C (human 5-HT2C receptor; agonist mode, up to 10 μM): little to no measurable agonist activity
- inhibition of 5-HT-mediated calcium flux at 5-HT2C (human 5-HT2C receptor; [4]): < 50%
- agonist activity at 5-HT2B (5-HT2B; agonist mode, up to 10 μM): little to no measurable agonist activity
- inhibition of 5-HT-mediated calcium flux at 5-HT2B (5-HT2B; [4]): < 50%
- Bottom of concentration response curve (normalized peak INa inhibition) (human Nav1.1 and Navβ1 [3]): 0.02
- Hill Slope of concentration response curve on peak INa (human Nav1.1 and Navβ1 [3]): 1.45
- Top of concentration response curve (normalized peak INa inhibition) (human Nav1.1 and Navβ1 [3]): 0.88
- effect on voltage-dependence of sodium conductance (human Nav1.1 and Navβ1 [3]): no effect was observed
- Normalized Peak INa Inhibition (human Nav1.1 and Navβ1 [3]; 0.1 nM, peak protocol): −0.077 ± 0.08
- Peak INa Density (human Nav1.1 and Navβ1 [3]; 0.1 nM, peak protocol): −429.6 ± 50.7 pA/pF
- Peak INa Density @ −20 mV (human Nav1.1 and Navβ1 [3]; 1 nM): −395.9 ± 56.0 pA/pF
- Normalized Peak INa Inhibition (human Nav1.1 and Navβ1 [3]; 1 nM, peak protocol): 0.015 ± 0.03
- Peak INa Density (human Nav1.1 and Navβ1 [3]; 1 nM, peak protocol): −386.1 ± 56.6 pA/pF
- Peak INa Density @ −20 mV (human Nav1.1 and Navβ1 [3]; 10 nM): −319.1 ± 50.5 pA/pF
- Normalized Peak INa Inhibition (human Nav1.1 and Navβ1 [3]; 10 nM, peak protocol): −0.011 ± 0.03
- Peak INa Density (human Nav1.1 and Navβ1 [3]; 10 nM, peak protocol): −311.1 ± 41.7 pA/pF
- Peak INa Density @ −20 mV (human Nav1.1 and Navβ1 [3]; 100 nM): −258.3 ± 34.1 pA/pF
- Normalized Peak INa Inhibition (human Nav1.1 and Navβ1 [3]; 100 nM, peak protocol): 0.13 ± 0.02
- Peak INa Density (human Nav1.1 and Navβ1 [3]; 100 nM, peak protocol): −276.0 ± 31.0 pA/pF
- Peak INa Density @ −20 mV (human Nav1.1 and Navβ1 [3]; 300 nM): −235.1 ± 37.9 pA/pF
- Normalized Peak INa Inhibition (human Nav1.1 and Navβ1 [3]; 300 nM, peak protocol): 0.08 ± 0.06
- Peak INa Density (human Nav1.1 and Navβ1 [3]; 300 nM, peak protocol): −259.2 ± 38.0 pA/pF
- Peak INa Density @ −20 mV (human Nav1.1 and Navβ1 [3]; 500 nM): −269.2 ± 38.8 pA/pF
- Normalized Peak INa Inhibition (human Nav1.1 and Navβ1 [3]; 500 nM, peak protocol): 0.05 ± 0.07
- Peak INa Density (human Nav1.1 and Navβ1 [3]; 500 nM, peak protocol): −284.6 ± 35.2 pA/pF
- Peak INa Density @ −20 mV (human Nav1.1 and Navβ1 [3]; 1 μM): −320.5 ± 40.0 pA/pF
- Normalized Peak INa Inhibition (human Nav1.1 and Navβ1 [3]; 1 μM, peak protocol): 0.12 ± 0.03
- Peak INa Density (human Nav1.1 and Navβ1 [3]; 1 μM, peak protocol): −319.1 ± 34.5 pA/pF
- Activation Slope Factor (human Nav1.1 and Navβ1 [3]; 3 μM): 6.18 ± 1.1 mV^−1
- Activation V1/2 (human Nav1.1 and Navβ1 [3]; 3 μM): −34.32 ± 1.8 mV
- Capacitance (human Nav1.1 and Navβ1 [3]; 3 μM): 11.17 ± 1.0 pF
- Inactivation Slope Factor (human Nav1.1 and Navβ1 [3]; 3 μM): −6.41 ± 0.7 mV^−1
- Inactivation V1/2 (human Nav1.1 and Navβ1 [3]; 3 μM): −60.46 ± 1.5 mV
- Peak INa Density @ −20 mV (human Nav1.1 and Navβ1 [3]; 3 μM): −149.4 ± 22.4 pA/pF
- Normalized Peak INa Inhibition (human Nav1.1 and Navβ1 [3]; 3 μM, peak protocol): 0.36 ± 0.05
- Peak INa Density (human Nav1.1 and Navβ1 [3]; 3 μM, peak protocol): −187.1 ± 23.3 pA/pF
- Peak INa Density @ −20 mV (human Nav1.1 and Navβ1 [3]; 5 μM): −115.6 ± 20.4 pA/pF
- Normalized Peak INa Inhibition (human Nav1.1 and Navβ1 [3]; 5 μM, peak protocol): 0.46 ± 0.06
- Peak INa Density (human Nav1.1 and Navβ1 [3]; 5 μM, peak protocol): −171.3 ± 22.2 pA/pF
- reduction of baseline peak INa (human Nav1.1 and Navβ1 [3]; 10 μM): 73±3%
- Peak INa Density @ −20 mV (human Nav1.1 and Navβ1 [3]; 10 μM, step −120 mV to −20 mV): −17.46±3.1 pA/pF
- Peak INa Density (human Nav1.1 and Navβ1 [3]; 10 μM, peak protocol): −85.4 ± 12.9 pA/pF
- Normalized Peak INa Inhibition (human Nav1.1 and Navβ1 [3]; 10 μM, peak protocol, 1−(IDrug÷IReference)): 0.73 ± 0.03
- pIC50 (human Nav1.1 and Navβ1 [3]; concentration response curve, peak protocol, read-out: IC50, inhibition of peak INa (VGSC)): 5.37
